One experiment deals with rhinovirus B14. The experiment in a line: Antiviral activity against Human rhinovirus serotype 14 infected in human HeLa cells assessed as reduction in virus-induced cytopathic effect by measuring reduction in host cell viability preincubated with cells for 6 hrs followed by viral infection measured up to 72 hrs by CellTiter-Glo luminescence assay. The note with it: Rhinovirus B. The experiment is classed as functional, organism-based.

Another experiment has as its target Genome polyprotein (rhinovirus B14, UniProt P03303). The experiment in a line: Inhibition of Human rhinovirus serotype 14 3C protease preincubated for 1 hr followed by Cys(PT14M)-Ala-Ile-Phe-Gln'Gly-Pro-Asp-Phe(4-NH2)-OH substrate addition measured after 1 hr by fluorescence lifetime readout assay.

Each structure is given as a SMILES string. Square brackets hold non-standard residues; d marks the D form. Peptide text beside a SMILES is read from it. * marks the point of attachment. ξ: configuration not given here. Cbz = O=C(OCc1ccccc1)*; ξDap = NCC(N)C(=O)O

Chain of Genome polyprotein (P03303 1538-1719 limits assumed): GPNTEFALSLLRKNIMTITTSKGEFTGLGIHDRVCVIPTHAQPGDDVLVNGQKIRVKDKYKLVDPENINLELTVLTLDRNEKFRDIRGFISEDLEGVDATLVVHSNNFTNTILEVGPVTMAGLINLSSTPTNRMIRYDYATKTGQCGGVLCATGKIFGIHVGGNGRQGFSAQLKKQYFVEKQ

As to `Cc1cc(C(=O)N[C@H]2CCCCN(C)C(=O)CC[C@@H](C=O)NC(=O)[C@@H]3C[C@@H](c4ccccc4)CN3C2=O)no1`, the EC50 with rhinovirus B14 turned out to be 28600 nM. This compound also gave an IC50 against Genome polyprotein of 7370 nM.

`Cc1cc(C(=O)N[C@H]2CCCNC(=O)[C@H]3CCN(C3)C(=O)CC[C@@H](C=O)NC(=O)[C@H](Cc3ccc(F)cc3)NC2=O)no1`: the half-maximal effective concentration (EC50) in the experiment on rhinovirus B14 was greater than 50000 nM. The IC50 against Genome polyprotein was 2 nM.

On to `Cc1cc(C(=O)N[C@H]2CCCCN(C)C(=O)CC[C@@H](C(=O)C(=O)N3CCC3)NC(=O)[C@H](Cc3ccc(F)cc3)NC2=O)no1`, for which, in the experiment with rhinovirus B14, the EC50 was found to be 6100 nM. This compound also had an IC50 against Genome polyprotein of 35 nM.

For the compound `Cc1cc(C(=O)N[C@H]2CCCCNC(=O)CC[C@@H](C=O)NC(=O)[C@H](Cc3ccc(F)cc3)NC2=O)no1`, in the experiment on rhinovirus B14, the 50% effective concentration (EC50) was greater than 50000 nM. At Genome polyprotein, the IC50 was 3200 nM.

In the case of `CCOC(=O)/C=C/[C@@H]1CCC(=O)N(C)CCCC[C@H](NC(=O)c2cc(C)on2)C(=O)N[C@@H](Cc2ccc(F)cc2)C(=O)N1`, in the experiment on rhinovirus B14, the EC50 is greater than 50000 nM. The 50% inhibitory concentration (IC50) on Genome polyprotein turned out to be 3840 nM.

`Cc1cc(C(=O)N[C@@H]2C(=O)N[C@@H](Cc3ccc(F)cc3)C(=O)N[C@H](C=O)CCC(=O)NCc3cccc2c3)no1`: the EC50 in the experiment on rhinovirus B14 was 21900 nM. In addition, the half-maximal inhibitory concentration (IC50) against Genome polyprotein was found to be 753 nM.

As to `Cc1cc(C(=O)N[C@H]2CNC(=O)[C@H]3CCCN3C(=O)CC[C@@H](C=O)NC(=O)[C@H](Cc3ccc(F)cc3)NC2=O)no1`, the EC50 in the experiment with rhinovirus B14 was 33500 nM. Further, half-maximal inhibition at Genome polyprotein (IC50) required 6 nM.

Consider `Cc1cc(C(=O)N[C@H]2CCCCN(C)C(=O)CC[C@@H](C=O)NC(=O)[C@H](Cc3ccc(F)cc3)NC2=O)no1`, for which the EC50 with rhinovirus B14 came to 3400 nM. In addition, at Genome polyprotein, the midpoint of inhibition, the IC50, lay at 63 nM.

As to `Cc1cc(C(=O)N[C@H]2CNC(=O)C[C@H]3CCCN3C(=O)CC[C@@H](C=O)NC(=O)[C@H](Cc3ccc(F)cc3)NC2=O)no1`, the EC50 in the experiment on rhinovirus B14 amounted to 29100 nM. Also, the IC50 against Genome polyprotein turned out to be 2 nM.

Consider `Cc1cc(C(=O)N[C@@H]2C(=O)N[C@@H](Cc3ccc(F)cc3)C(=O)N[C@H](C=O)CCC(=O)N(C)Cc3cccc2c3)no1`, for which, in the experiment on rhinovirus B14, the EC50 came out at 568 nM. In addition, half-maximal inhibition on Genome polyprotein (IC50) was put at 8 nM.

Regarding `Cc1cc(C(=O)N[C@H]2C/C=C/CCCO[C@H]3CCN(C3)C(=O)CC[C@@H](C=O)NC(=O)[C@H](Cc3ccc(F)cc3)NC2=O)no1`, the 50% effective concentration (EC50) with rhinovirus B14 was 2050 nM. On Genome polyprotein, this compound returned a half-maximal inhibitory concentration (IC50) of 2 nM.

For the compound `Cc1cc(C(=O)N[C@H]2CNC(=O)CN(C)C(=O)CC[C@@H](C=O)NC(=O)[C@H](Cc3ccc(F)cc3)NC2=O)no1`, in the experiment on rhinovirus B14, the EC50 was greater than 50000 nM. On Genome polyprotein, this compound came in with an IC50 of 18 nM.

As for `Cc1cc(C(=O)N[C@H]2C/C=C/CO[C@H]3CCN(C3)C(=O)CC[C@@H](C=O)NC(=O)[C@H](Cc3ccc(F)cc3)NC2=O)no1`, in the experiment on rhinovirus B14, the half-maximal effective concentration (EC50) came to 5740 nM. At Genome polyprotein, this compound registered a half-maximal inhibitory concentration (IC50) of 3 nM.

Regarding `CC(=O)NCC(C=O)NC(=O)[C@H](Cc1ccccc1)NC(=O)[C@H](CC(C)C)NC(=O)OCc1ccccc1` (stereo partly drawn) (Cbz-Leu-Phe-[ξDap](Ac)-aldehyde), the EC50 with rhinovirus B14 amounted to 1760 nM. Besides, 7 nM corresponded to half-maximal inhibition against Genome polyprotein (IC50).

For the origin of these results see ChEMBL document CHEMBL4184282, “Structure-based design and synthesis of macrocyclic human rhinovirus 3C protease inhibitors” (Bioorg Med Chem Lett, 2018).
